Data as given in patent US20240150290A1, “HETEROCYCLIC P2Y14 RECEPTOR ANTAGONISTS” (priority 2021, published 2024).
Values after ≈ are worked out from the molar mass of the structure shown. Where two headings read alike, the source gives them in different places.

Tests used:
[1] = HPLC-based lipophilicity (Log D7.4); conditions: for chromatographic logD: pH 7.4; for Log D7.4: HPLC-based lipophilicity
[2] = Aqueous solubility, pION method
[3] = target: T1, hP2Y14R (Homo sapiens, UniProt Q15391); experiment: Inhibition of fluorescent antagonist binding in whole hP2Y14R-expressing CHO cells (flow cytometry)
T1 construct: expressed in transfected cells; host or cells: CHO cells
T1 sequence (Q15391 1-338): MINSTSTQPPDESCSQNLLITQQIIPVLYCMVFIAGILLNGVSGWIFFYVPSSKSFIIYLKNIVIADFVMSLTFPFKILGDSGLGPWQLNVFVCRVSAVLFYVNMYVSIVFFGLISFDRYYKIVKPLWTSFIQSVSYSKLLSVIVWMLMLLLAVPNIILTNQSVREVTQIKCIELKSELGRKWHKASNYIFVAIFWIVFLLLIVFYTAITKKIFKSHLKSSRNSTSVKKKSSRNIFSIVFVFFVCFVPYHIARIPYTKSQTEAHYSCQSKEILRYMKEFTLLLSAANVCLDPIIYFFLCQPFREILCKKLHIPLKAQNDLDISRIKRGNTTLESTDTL

[4] = Table 2, whole hP2Y14R-CHO cells, 20 nM fluorescent antagonist 3, mean+SEM, n = 3-6, read-out: IC50
[5] = Table 1, fluorescent antagonist 2, hP2Y14R-CHO cells, 3-4 determinations, read-out: IC50, hP2Y14R (μM, mean ± SEM)
[6] = Example 5 table, whole cell fluorescent binding assay, read-out: IC50

Row | Compound | chromatographic logD [1] | Solubility (ug/mL) pH 4 [2] [ug/mL] | Solubility (ug/mL) pH 7.4 [2] [ug/mL] | further results
1 | O=C(O)c1cc(-c2ccc(C3=CC4CCC(C3)N4)cc2)c2ccc(-c3ccc(C(F)(F)F)cc3)cc2c1 (stereo not drawn) [Compound 128, 4-(4-(8-Azabicyclo[3.2.1]oct-2-en-3-yl)phenyl)-7-(4-(trifluoromethyl)phenyl)-2-naphthoic acid] | 2.33 ± 0.04 | 2.36 ± 0.01 | 0.35 ± 0.04 | 
2 | N[C@@H]1C[C@H](CO)C[C@H]1c1ccc(-c2cc(C(=O)O)cc3cc(-c4ccc(C(F)(F)F)cc4)ccc23)cc1 [Compound 136, 4-(4-((1S,2R,4R)-2-Amino-4-(hydroxymethyl)cyclopentyl)phenyl)-7-(4-(trifluoromethyl)phenyl)-2-naphthoic acid] | 1.06 ± 0.05 | 3.74 ± 0.09 | 0.93 ± 0.20 | IC50 [3, 4]: 0.1 ± 0.019 µM
3 | O=C(O)c1cc(-c2ccc([C@@H]3CCN[C@@H]4C[C@@H]43)cc2)c2ccc(-c3ccc(C(F)(F)F)cc3)cc2c1 (racemic) [Compound 111, rac-4-(4-((1R,5R,6R)-2-Azabicyclo[4.1.0]heptan-5-yl)phenyl)-7-(4-(trifluoromethyl)phenyl)-2-naphthoic acid] | 1.75 ± 0.06 | 0.24 ± 0.02 |  | IC50 [3]: 0.0618 ± 0.0141 µM; solubility ([2]; pH 7.4, aqueous buffer): 0.05 ± 0.04 µg/mL (≈ 0.103 µM)
4 | O=C(O)c1cc(-c2ccc(C3CCNC3)cc2)c2ccc(-c3ccc(C(F)(F)F)cc3)cc2c1 (racemic) [Compound 105, 4-(4-(Pyrrolidin-3-yl)phenyl)-7-(4-(trifluoromethyl)phenyl)-2-naphthoic acid] | 1.89 ± 0.07 |  |  | 
5 | O=C(O)c1cc(-c2ccc(C34CCNCC3C4(F)F)cc2)c2ccc(-c3ccc(C(F)(F)F)cc3)cc2c1 (stereo not drawn) [Compound 109, 4-(4-(7,7-Difluoro-3-azabicyclo[4.1.0]heptan-6-yl)phenyl)-7-(4-(trifluoromethyl)phenyl)-2-naphthoic acid] | 2.71 ± 0.33 | 1.13 ± 0.34 | 0.25 ± 0.01 | IC50 [3, 4]: 0.211 ± 0.036 µM
6 | N[C@H]1C[C@@H](C(=O)O)[C@H](c2ccc(-c3cc(C(=O)O)cc4cc(-c5ccc(C(F)(F)F)cc5)ccc34)cc2)C1 [Compound 139, 4-(4-((1R,2R,4R)-4-Amino-2-carboxycyclopentyl)phenyl)-7-(4-(trifluoromethyl)phenyl)-2-naphthoic acid] |  | 1.05 ± 0.20 | 5.52 ± 0.21 | Log D7.4 [1]: −0.568 ± 0.038; IC50 [3, 4]: 0.102 ± 0.025 µM
7 | O=C(O)c1cc(-c2ccc(C3(O)C4CCC3CN(Cc3ccccc3)C4)cc2)c2ccc(-c3ccc(C(F)(F)F)cc3)cc2c1 (mixture of isomers) [Compound 130, 4-(4-((1R,5S,8r)-3-Benzyl-8-hydroxy-3-azabicyclo[3.2.1]octan-8-yl)phenyl)-7-(4-(trifluoromethyl)phenyl)-2-naphthoic acid] | 3.26 ± 0.01 |  |  | 
8 | O=C(O)c1cc(-c2ccc([C@@H]3CCN[C@H]4C[C@H]43)cc2)c2ccc(-c3ccc(C(F)(F)F)cc3)cc2c1 (racemic) [Compound 110, rac-4-(4-((1S,5R,6S)-2-Azabicyclo[4.1.0]heptan-5-yl)phenyl)-7-(4-(trifluoromethyl)phenyl)-2-naphthoic acid] | 2.59 ± 0.2 |  |  | IC50 [3]: 0.0424 ± 0.0117 µM; solubility ([2]; pH 4, aqueous buffer): 0.1 ± 0.03 µg/mL (≈ 0.205 µM); solubility ([2]; pH 7.4, aqueous buffer): 0.51 ± 0.23 µg/mL (≈ 1.05 µM)
9 | O=C(O)c1cc(-c2ccc(C3CC4CCC3CN4)cc2)c2ccc(-c3ccc(C(F)(F)F)cc3)cc2c1 (racemic) [Compound 126] | 1.74 ± 0.02 | 0.80 ± 0.05 | 0.49 ± 0.06 | 
10 | O=C(O)c1cc(-c2ccc([C@]3(O)C[C@H]4CC[C@@H](C3)N4)cc2)c2ccc(-c3ccc(C(F)(F)F)cc3)cc2c1 [Compound 127, 4-(4-((1R,3r,5S)-3-Hydroxy-8-azabicyclo[3.2.1]octan-3-yl)phenyl)-7-(4-(trifluoromethyl)phenyl)-2-naphthoic acid] | 1.16 ± 0.08 |  |  | 
11 | O=C(O)c1cc(-c2ccc([C@]3(O)C[C@H]4CC[C@@H]3CN4)cc2)c2ccc(-c3ccc(C(F)(F)F)cc3)cc2c1 [Compound 125a] |  | 2.66 ± 0.29 | 2.19 ± 0.10 | Log D7.4 [1]: 0.74 ± 0.05
12 | O=C(O)c1cc(-c2ccc(C3C4CCC3CNC4)cc2)c2ccc(-c3ccc(C(F)(F)F)cc3)cc2c1 (stereo not drawn) [Compound 133, 4-(4-(3-Azabicyclo[3.2.1]octan-8-yl)phenyl)-7-(4-(trifluoromethyl)phenyl)-2-naphthoic acid] | 2.97 ± 0.02 |  |  | IC50 [3]: 0.696 ± 0.1 µM; solubility ([2]; pH 4, aqueous buffer): 0.32 ± 0.01 µg/mL (≈ 0.638 µM); solubility ([2]; pH 7.4, aqueous buffer): 0.16 ± 0.01 µg/mL (≈ 0.319 µM)
13 | CC1CNCCC1c1ccc(-c2cc(C(=O)O)cc3cc(-c4ccc(C(F)(F)F)cc4)ccc23)cc1 (mixture of isomers) [Compound 106, 4-(4-(3-Methylpiperidin-4-yl)phenyl)-7-(4-(trifluoromethyl)phenyl)-2-naphthoic acid] | 2.79 ± 0.09 | 1.36 ± 0.21 | 0.03 ± 0.02 | IC50 [3, 4]: 0.0209 ± 0.0036 µM
14 | CC(=O)N1C[C@H]2C[C@@H]1C[C@@H]2c1ccc(-c2cc(C(=O)O)cc3cc(-c4ccc(C(F)(F)F)cc4)ccc23)cc1 (racemic) [Compound 113, rac-4-(4-((1S,4S,5S)-2-Acetyl-2-azabicyclo[2.2.1]heptan-5-yl)phenyl)-7-(4-(trifluoromethyl)phenyl)-2-naphthoic acid] | 0.921 ± 0.034 |  |  | IC50 [3, 4]: 0.0204 ± 0.0024 µM; solubility ([2]; pH 4, aqueous buffer): 0.13 ± 0.04 µg/mL (≈ 0.245 µM); solubility ([2]; pH 7.4, aqueous buffer): 2.53 ± 0.43 µg/mL (≈ 4.78 µM)
15 | CC1CC(c2ccc(-c3cc(C(=O)O)cc4cc(-c5ccc(C(F)(F)F)cc5)ccc34)cc2)CCN1 (stereo not drawn) [Compound 107, 4-(4-(2-Methylpiperidin-4-yl)phenyl)-7-(4-(trifluoromethyl)phenyl)-2-naphthoic acid] | 2.05 ± 0.11 | 0.31 ± 0.04 | 0.16 ± 0.03 | IC50 [3, 4]: 0.0178 ± 0.002 µM
16 | O=C(O)c1cc(-c2ccc([C@@]3(O)C[C@H]4CC[C@@H]3CN4)cc2)c2ccc(-c3ccc(C(F)(F)F)cc3)cc2c1 [Compound 125b] |  | 1.55 ± 0.11 | 0.74 ± 0.06 | 
17 | O=C(O)c1cc(-c2ccc([C@H]3C[C@@H]4CN[C@H]3C4)cc2)c2ccc(-c3ccc(C(F)(F)F)cc3)cc2c1 [Compound 117, 4-(4-((1S,4S,6R)-2-Azabicyclo[2.2.1]heptan-6-yl)phenyl)-7-(4-(trifluoromethyl)phenyl)-2-naphthoic acid] | 2.11 ± 0.06 |  |  | IC50 ([3]; Table 6, fluorescent hP2Y14R antagonist (3), read-out: hP2Y14R, IC50): 0.0259 ± 0.0076 µM
18 | NC1(c2ccc(-c3cc(C(=O)O)cc(-n4cc(-c5ccc(C(F)(F)F)cc5)nn4)c3)cc2)CC1 [Compound 22, 4′-(1-Aminocyclopropyl)-5-(4-(4-(trifluoromethyl)phenyl)-1H-1,2,3-triazol-1-yl)-[1,1′-biphenyl]-3-carboxylic acid] |  |  |  | IC50 [3, 5]: 14.1 ± 0.9 µM
19 | O=C(O)c1cc(-c2ccc(-c3cc(CCO)on3)cc2)cc(-n2cc(-c3ccc(C(F)(F)F)cc3)nn2)c1 [Compound 30, 4′-(5-(2-Hydroxyethyl)isoxazol-3-yl)-5-(4-(4-(trifluoromethyl)phenyl)-1H-1,2,3-triazol-1-yl)-[1,1′-biphenyl]-3-carboxylic acid] |  |  |  | IC50 [3, 5]: 0.389 ± 0.042 µM
20 | O=C(O)c1cc(-c2ccc([C@@]3(O)[C@@H]4CNC[C@H]3C4)cc2)c2ccc(-c3ccc(C(F)(F)F)cc3)cc2c1 [Compound 425, 4-(4-((1R,5S,6r)-6-Hydroxy-3-azabicyclo[3.1.1]heptan-6-yl)phenyl)-7-(4-(trifluoromethyl)phenyl)-2-naphthoic acid] |  |  |  | IC50 [3, 6]: 0.00592 ± 0.00055 µM
21 | O=C(O)c1ccc(-c2cc(C(=O)O)cc(-n3cc(-c4ccc(C(F)(F)F)cc4)nn3)c2)cc1 [Compound 13, 5-(4-(4-(Trifluoromethyl)phenyl)-1H-1,2,3-triazol-1-yl)-[1,1′-biphenyl]-3,4′-dicarboxylic acid] |  |  |  | IC50 [3, 5]: 0.632 ± 0.023 µM
22 | O=C(O)c1cc(-c2ccc(C3CNC3)cc2)c2ccc(-c3ccc(C(F)(F)F)cc3)cc2c1 [Compound 405, 4-(4-(Azetidin-3-yl)phenyl)-7-(4-(trifluoromethyl)phenyl)-2-naphthoic acid] |  |  |  | IC50 [3, 6]: 0.0659 ± 0.0193 µM
23 | O=C(O)c1cc(-c2ccc(C3CC4(CNC4)C3)cc2)c2ccc(-c3ccc(C(F)(F)F)cc3)cc2c1 [Compound 406, 4-(4-(2-Azaspiro[3.3]heptan-6-yl)phenyl)-7-(4-(trifluoromethyl)phenyl)-2-naphthoic acid] |  |  |  | IC50 [3, 6]: 0.0466 ± 0.0071 µM
24 | NC(=O)Cc1ccc(-c2cc(C(=O)O)cc(-n3cc(-c4ccc(C(F)(F)F)cc4)nn3)c2)cc1 [Compound 16, 4′-(2-Amino-2-oxoethyl)-5-(4-(4-(trifluoromethyl)phenyl)-1H-1,2,3-triazol-1-yl)-[1,1′-biphenyl]-3-carboxylic acid] |  |  |  | IC50 [3, 5]: 1.29 ± 0.32 µM
25 | CC(C)(C)OC(=O)N1CCC(C(=O)Nc2ccc(-c3cc(C(=O)O)cc(-n4cc(-c5ccc(C(F)(F)F)cc5)nn4)c3)cc2)CC1 [Compound 12, 4′-(1-(tert-Butoxycarbonyl)piperidine-4-carboxamido)-5-(4-(4-(trifluoromethyl)phenyl)-1H-1,2,3-triazol-1-yl)-[1,1′-biphenyl]-3-carboxylic acid] |  |  |  | IC50 [3, 5]: 22.5 ± 3.7 µM
